Test results from ChEMBL document CHEMBL1649440, “Impact of sarA on antibiotic susceptibility of Staphylococcus aureus in a catheter-associated in vitro model of biofilm formation” (2009).
In brackets after ≈: the same amount, converted by molar mass.

Key:
[1] = system: Staphylococcus aureus; assay: Antimicrobial activity against Staphylococcus aureus isolate UAMS-1 by Etest method; assay type: functional
[2] = system: Staphylococcus aureus; assay: Antimicrobial activity against Staphylococcus aureus isolate UAMS-929 harboring sarA gene mutant by Etest method; assay type: functional

CCCCCCCCCC(=O)N[C@@H](Cc1c[nH]c2ccccc12)C(=O)N[C@H](CC(N)=O)C(=O)N[C@@H](CC(=O)O)C(=O)N[C@@H]1C(=O)NCC(=O)N[C@@H](CCCN)C(=O)N[C@@H](CC(=O)O)C(=O)N[C@H](C)C(=O)N[C@@H](CC(=O)O)C(=O)NCC(=O)N[C@H](CO)C(=O)N[C@@H]([C@H](C)CC(=O)O)C(=O)N[C@@H](CC(=O)c2ccccc2N)C(=O)O[C@@H]1C
MIC [1]: 0.75 µg/mL (≈ 0.463 µM) | MIC [2]: 0.75 µg/mL (≈ 0.463 µM)

CC(=O)NC[C@H]1CN(c2ccc(N3CCOCC3)c(F)c2)C(=O)O1 [LINEZOLID]
MIC [1]: 1 µg/mL (≈ 2.96 µM) | MIC [2]: 1 µg/mL (≈ 2.96 µM)

CN[C@H](CC(C)C)C(=O)N[C@H]1C(=O)N[C@@H](CC(N)=O)C(=O)N[C@H]2C(=O)N[C@H]3C(=O)N[C@H](C(=O)N[C@H](C(=O)O)c4cc(O)cc(O)c4-c4cc3ccc4O)[C@H](O)c3ccc(c(Cl)c3)Oc3cc2cc(c3O[C@@H]2O[C@H](CO)[C@@H](O)[C@H](O)[C@H]2O[C@H]2C[C@](C)(N)[C@H](O)[C@H](C)O2)Oc2ccc(cc2Cl)[C@H]1O [VANCOMYCIN]
MIC [1]: 1.5 µg/mL (≈ 1.04 µM) | MIC [2]: 1.5 µg/mL (≈ 1.04 µM)
